Reference: ChEMBL document CHEMBL4387766, “Synthesis and biological evaluation of PSMA-targeting paclitaxel conjugates” (Bioorg Med Chem Lett, 2019)

Experiments:
CWR22R [1] = test: Cytotoxicity against PSMA-positive human 22Rv1 cells assessed as reduction in cell viability measured after 72 hrs by MTT assay; assay type: functional; settings: 22Rv1, 72 h
LNCaP = test: Cytotoxicity against PSMA-positive human LNCAP cells assessed as reduction in cell viability measured after 72 hrs by MTT assay; assay type: functional
[2] = Selectivity ratio of CC50 for human PSMA-deficient PC3 cells to CC50 for PSMA-positive human 22Rv1 cells; assay type: functional
[3] = Selectivity ratio of CC50 for human PSMA-deficient PC3 cells to CC50 for PSMA-positive human LNCAP cells; assay type: functional
[4] = Cytotoxicity against human MCF7 cells assessed as reduction in cell viability measured after 72 hrs by MTT assay; assay type: cell-based
[5] = Cytotoxicity against human A549 cells assessed as reduction in cell viability measured after 72 hrs by MTT assay; assay type: cell-based
[6] = Selectivity ratio of CC50 for human VA13 cells to CC50 for PSMA-positive human LNCAP cells
[7] = Cytotoxicity against HEK293T cells assessed as reduction in cell viability measured after 72 hrs by MTT assay; assay type: cell-based, HEK-293T; settings: human
PC-3 = test: Cytotoxicity against PSMA-deficient human PC3 cells assessed as reduction in cell viability measured after 72 hrs by MTT assay; assay type: functional; settings: PC-3, 72 h
[8] = Cytotoxicity against human VA13 cells assessed as reduction in cell viability measured after 72 hrs by MTT assay; assay type: cell-based; settings: WI-38 VA13 cells
[9] = Selectivity ratio of CC50 for human VA13 cells to CC50 for PSMA-positive human 22Rv1 cells
CWR22R [10] = test: Antitumor activity against human 22Rv1 cells xenografted in nu/nu mouse assessed as tumor growth inhibition at 10 mg/kg, iv administered 3 times per week relative to control; assay type: functional; settings: 22Rv1, iv, read-out: TGI

## CC(=O)O[C@H]1C(=O)[C@@]2(C)[C@H]([C@H](OC(=O)c3ccccc3)[C@]3(O)C[C@H](OC(=O)[C@H](OC(=O)CCCc4cn(CCCCCC(=O)NCCCC[C@H](NC(=O)N[C@@H](CCC(=O)O)C(=O)O)C(=O)O)nn4)[C@@H](NC(=O)c4ccccc4)c4ccccc4)C(C)=C1C3(C)C)[C@]1(OC(C)=O)CO[C@@H]1C[C@@H]2O
CWR22R [1]
  CC50: 120 nM
LNCaP
  CC50: 58 nM
[2]
  Selectivity ratio: 1.13
[3]
  Selectivity ratio: 0.85
[4]
  CC50 at 72 h: < 20 nM
[5]
  CC50 at 72 h: < 20 nM
[6]
  Selectivity ratio: 0.47
[7]
  CC50 at 72 h: < 20 nM
PC-3
  CC50: 95 nM
[8]
  CC50 at 72 h: < 20 nM
[9]
  Selectivity ratio: 0.62
CWR22R [10]
  inhibition in vivo at 10 mg/kg: 30%
